Test results reported in patent US12419877B2, “Solid forms of {[5-(3-chlorophenyl)-3-hydroxypyridine-2-carbonyl]amino}acetic acid, compositions, and uses thereof” (Akebia Therapeutics, Inc., priority 2013, dated 2025).
Values after ≈ are worked out from the molar mass of the structure shown. Where two headings read alike, the source gives them in different places.

Columns and labels:
[1] = Dynamic Vapour Sorption (DVS) with XRPD re-analysis; type: physicochemical
Description: Dynamic Vapour Sorption (DVS) was performed on a DVS-1 dynamic vapour sorption balance by Surface Measurement Systems. Approximately 10-20 mg of sample was loaded into a wire mesh vapour sorption balance pan of the balance. The sample was subjected to a ramping profile from 20-90% relative humidity (RH) in 10% increments, maintaining the sample at each step until a stable weight had been achieved (99.5% step completion) or 1000 minutes had elapsed. After completion of the sorption cycle, the sample was dried using the same procedure, but all the way down to 0% RH and finally taken back to the starting point of 20% RH. The weight change during the sorption/desorption cycles were plotted, allowing for the hygroscopic nature of the sample to be determined. Following the DVS analysis, the solid was re-analysed by XRPD in order to determine whether there had been any change in physical form.

[2] = Solubility experiments (approximate solubility by solvent aliquot addition); type: physicochemical; conditions: thermodynamic from solid
Description: Approximately 20 mg of Form A of Compound (1) was placed in each of 48 vials and 5 volume aliquots of the appropriate solvent systems were added to the appropriate vial. Between each addition, the mixture was checked for dissolution and if no dissolution was apparent, the mixture was warmed to ca. 50° C. and checked again. This procedure was continued until dissolution was observed or until 100 volumes of solvent had been added.

Compound: O=C(O)CNC(=O)c1ncc(-c2cccc(Cl)c2)cc1O [Form A of Compound (I), {[5-(3-chlorophenyl)-3-hydroxypyridine-2-carbonyl]amino}acetic acid]
- water sorption at 90% RH ([1]; DVS, 90% RH): 0.13%
- XRPD analysis following DVS (change in physical form) ([1]; after DVS sorption/desorption cycle): no change in form
- hygroscopicity (DVS) ([1]; judged from water sorption at 90% RH): non-hygroscopic
- solubility ([2]; aqueous with cosolvent or surfactant or cyclodextrin, Solvent: MeOH/Water (20%), ca. 50° C., read-out: Solubility (mg/mL) (ca. 50° C.)): < 10 mg/mL
- solubility ([2]; aqueous with cosolvent or surfactant or cyclodextrin, Solvent: MeOH/Water (50%), RT (ca. 22° C.), read-out: Solubility (mg/mL) RT (ca. 22° C.)): < 10 mg/mL
- solubility ([2]; aqueous with cosolvent or surfactant or cyclodextrin, Solvent: MeOH/Water (50%), ca. 50° C., read-out: Solubility (mg/mL) (ca. 50° C.)): < 10 mg/mL
- solubility ([2]; ethyl acetate/cyclohexane (1:2), organic solvent or mixture, Solvent: EtOAc/Cyclohexane (1:2), RT (ca. 22° C.), read-out: Solubility (mg/mL) RT (ca. 22° C.)): < 10 mg/mL
- solubility ([2]; organic solvent or mixture, Solvent: 1,2-Propanediol, RT (ca. 22° C.), read-out: Solubility (mg/mL) RT (ca. 22° C.)): < 20 mg/mL
- solubility ([2]; organic solvent or mixture, Solvent: 1,2-Propanediol, ca. 50° C., read-out: Solubility (mg/mL) (ca. 50° C.)): 20 mg/mL (≈ 65.2 mM)
- solubility ([2]; organic solvent or mixture, Solvent: 1,4-Dioxane, RT (ca. 22° C.), read-out: Solubility (mg/mL) RT (ca. 22° C.)): > 200 mg/mL
- solubility ([2]; organic solvent or mixture, Solvent: 1,4-Dioxane, ca. 50° C., read-out: Solubility (mg/mL) (ca. 50° C.)): > 200 mg/mL
- solubility ([2]; organic solvent or mixture, Solvent: 1-Butanol (1-BuOH), RT (ca. 22° C.), read-out: Solubility (mg/mL) RT (ca. 22° C.)): < 20 mg/mL
- solubility ([2]; organic solvent or mixture, Solvent: 1-Butanol (1-BuOH), ca. 50° C., read-out: Solubility (mg/mL) (ca. 50° C.)): 20 mg/mL (≈ 65.2 mM)
- solubility ([2]; organic solvent or mixture, Solvent: 1-Propanol (1-PrOH), RT (ca. 22° C.), read-out: Solubility (mg/mL) RT (ca. 22° C.)): < 20 mg/mL
- solubility ([2]; organic solvent or mixture, Solvent: 1-Propanol (1-PrOH), ca. 50° C., read-out: Solubility (mg/mL) (ca. 50° C.)): 20 mg/mL (≈ 65.2 mM)
- solubility ([2]; organic solvent or mixture, Solvent: 2-Ethoxyethanol, RT (ca. 22° C.), read-out: Solubility (mg/mL) RT (ca. 22° C.)): < 200 mg/mL
- solubility ([2]; organic solvent or mixture, Solvent: 2-Ethoxyethanol, ca. 50° C., read-out: Solubility (mg/mL) (ca. 50° C.)): 200 mg/mL (≈ 652 mM)
- solubility ([2]; organic solvent or mixture, Solvent: 2-Methoxyethanol, RT (ca. 22° C.), read-out: Solubility (mg/mL) RT (ca. 22° C.)): > 200 mg/mL
- solubility ([2]; organic solvent or mixture, Solvent: 2-Methoxyethanol, ca. 50° C., read-out: Solubility (mg/mL) (ca. 50° C.)): > 200 mg/mL
- solubility ([2]; organic solvent or mixture, Solvent: 2-Methyl tetrahydrofuran (2-MeTHF), RT (ca. 22° C.), read-out: Solubility (mg/mL) RT (ca. 22° C.)): > 200 mg/mL
- solubility ([2]; organic solvent or mixture, Solvent: 2-Methyl tetrahydrofuran (2-MeTHF), ca. 50° C., read-out: Solubility (mg/mL) (ca. 50° C.)): > 200 mg/mL
- solubility ([2]; organic solvent or mixture, Solvent: 2-Propanol (IPA), RT (ca. 22° C.), read-out: Solubility (mg/mL) RT (ca. 22° C.)): < 13 mg/mL
- solubility ([2]; organic solvent or mixture, Solvent: 2-Propanol (IPA), ca. 50° C., read-out: Solubility (mg/mL) (ca. 50° C.)): 13 mg/mL (≈ 42.4 mM)
- solubility ([2]; organic solvent or mixture, Solvent: 3-Methyl-1-butanol, RT (ca. 22° C.), read-out: Solubility (mg/mL) RT (ca. 22° C.)): < 10 mg/mL
- solubility ([2]; organic solvent or mixture, Solvent: 3-Methyl-1-butanol, ca. 50° C., read-out: Solubility (mg/mL) (ca. 50° C.)): < 10 mg/mL
- solubility ([2]; organic solvent or mixture, Solvent: Acetone/Water (3%), RT (ca. 22° C.), read-out: Solubility (mg/mL) RT (ca. 22° C.)): < 200 mg/mL
- solubility ([2]; organic solvent or mixture, Solvent: Acetone/Water (3%), ca. 50° C., read-out: Solubility (mg/mL) (ca. 50° C.)): 200 mg/mL (≈ 652 mM)
- solubility ([2]; organic solvent or mixture, Solvent: Acetone/Water (20%), RT (ca. 22° C.), read-out: Solubility (mg/mL) RT (ca. 22° C.)): < 200 mg/mL
- solubility ([2]; organic solvent or mixture, Solvent: Acetone/Water (20%), ca. 50° C., read-out: Solubility (mg/mL) (ca. 50° C.)): 200 mg/mL (≈ 652 mM)
- solubility ([2]; organic solvent or mixture, Solvent: Acetone, RT (ca. 22° C.), read-out: Solubility (mg/mL) RT (ca. 22° C.)): 100 mg/mL (≈ 326 mM)
- solubility ([2]; organic solvent or mixture, Solvent: Acetone, ca. 50° C., read-out: Solubility (mg/mL) (ca. 50° C.)): > 100 mg/mL
- solubility ([2]; organic solvent or mixture, Solvent: Acetonitrile, RT (ca. 22° C.), read-out: Solubility (mg/mL) RT (ca. 22° C.)): < 13 mg/mL
- solubility ([2]; organic solvent or mixture, Solvent: Acetonitrile, ca. 50° C., read-out: Solubility (mg/mL) (ca. 50° C.)): 13 mg/mL (≈ 42.4 mM)
- solubility ([2]; organic solvent or mixture, Solvent: Anisole, RT (ca. 22° C.), read-out: Solubility (mg/mL) RT (ca. 22° C.)): < 40 mg/mL
- solubility ([2]; organic solvent or mixture, Solvent: Anisole, ca. 50° C., read-out: Solubility (mg/mL) (ca. 50° C.)): 40 mg/mL (≈ 130 mM)
- solubility ([2]; organic solvent or mixture, Solvent: Benzonitrile, RT (ca. 22° C.), read-out: Solubility (mg/mL) RT (ca. 22° C.)): < 10 mg/mL
- solubility ([2]; organic solvent or mixture, Solvent: Benzonitrile, ca. 50° C., read-out: Solubility (mg/mL) (ca. 50° C.)): < 10 mg/mL
- solubility ([2]; organic solvent or mixture, Solvent: Benzyl alcohol, RT (ca. 22° C.), read-out: Solubility (mg/mL) RT (ca. 22° C.)): < 68 mg/mL
- solubility ([2]; organic solvent or mixture, Solvent: Benzyl alcohol, ca. 50° C., read-out: Solubility (mg/mL) (ca. 50° C.)): 68 mg/mL (≈ 222 mM)
- solubility ([2]; organic solvent or mixture, Solvent: Chloroform, RT (ca. 22° C.), read-out: Solubility (mg/mL) RT (ca. 22° C.)): < 10 mg/mL
- solubility ([2]; organic solvent or mixture, Solvent: Chloroform, ca. 50° C., read-out: Solubility (mg/mL) (ca. 50° C.)): < 10 mg/mL
- solubility ([2]; organic solvent or mixture, Solvent: Cumene, RT (ca. 22° C.), read-out: Solubility (mg/mL) RT (ca. 22° C.)): < 10 mg/mL
- solubility ([2]; organic solvent or mixture, Solvent: Cumene, ca. 50° C., read-out: Solubility (mg/mL) (ca. 50° C.)): < 10 mg/mL
- solubility ([2]; organic solvent or mixture, Solvent: Cyclohexane, RT (ca. 22° C.), read-out: Solubility (mg/mL) RT (ca. 22° C.)): < 10 mg/mL
- solubility ([2]; organic solvent or mixture, Solvent: Cyclohexane, ca. 50° C., read-out: Solubility (mg/mL) (ca. 50° C.)): < 10 mg/mL
- solubility ([2]; organic solvent or mixture, Solvent: Cyclohexanone, RT (ca. 22° C.), read-out: Solubility (mg/mL) RT (ca. 22° C.)): < 200 mg/mL
- solubility ([2]; organic solvent or mixture, Solvent: Cyclohexanone, ca. 50° C., read-out: Solubility (mg/mL) (ca. 50° C.)): 200 mg/mL (≈ 652 mM)
- solubility ([2]; organic solvent or mixture, Solvent: Dichloromethane (DCM), RT (ca. 22° C.), read-out: Solubility (mg/mL) RT (ca. 22° C.)): < 10 mg/mL
- solubility ([2]; organic solvent or mixture, Solvent: Dichloromethane (DCM), ca. 50° C., read-out: Solubility (mg/mL) (ca. 50° C.)): < 10 mg/mL
